# Assay results from publication PMC3713518, “Structure-based discovery of fiber-binding compounds that reduce the cytotoxicity of amyloid beta” (eLife, 2013).
# Experiments:
# KLVFFA (Aβ16–21) fibers = target: T1, KLVFFA (Aβ16–21) fibers (Homo sapiens, UniProt P05067); experiment: 1H NMR titration of compound with fibers; type: binding
# T1 construct: gene APP; fibrils grown 3 months; segment of Abeta cut from APP polyprotein
# Aβ1–42 fibers = target: T2, Aβ1–42 fibers (Homo sapiens, UniProt P05067); experiment: 1H NMR of compound with fibers; conditions: PBS pH 7.4, 283 K; binding to full-length Abeta fibers
# T2 construct: gene APP; residues 1-42 of Abeta from APP polyprotein; E. coli His-(NANP)19-TEV fusion, tag cut by TEV; fibrils grown 2 months
# Source text: 1H NMR of compound with fibers on Aβ1–42 fibers
# T2 sequence (P05067 672-713): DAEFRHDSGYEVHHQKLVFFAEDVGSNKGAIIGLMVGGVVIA
Kd (KLVFFA (Aβ16–21) fibers),Binding to Aβ fiber / NMR peak reduction (%) (Aβ1–42 fibers),SMILES
43 ± 21 µM,6%,O=S(=O)(O)c1cc(S(=O)(=O)O)c2c(N=Nc3ccccc3)c(O)ccc2c1 [orange G]
24 ± 5 µM,13%,Cc1ccc(O)c(N=Nc2c(O)cc(S(=O)(=O)O)c3ccccc23)c1 [BAF8]

SMILES,Kd (KLVFFA (Aβ16–21) fibers),Binding to Aβ fiber / NMR peak reduction (%) (Aβ1–42 fibers)
O=C1OC2(c3ccccc31)c1cc(Br)c(O)c(Br)c1Oc1c2cc(Br)c(O)c1Br [BAF1],12 ± 7 µM,8%
